Laboratory results from patent US5527900A, “N3-alkyl-2',5'-0-silylated-3'-spiro-thymidine derivatives” (Stitching Rega VZW, priority 1991, dated 1996).
Values after ≈ are worked out from the molar mass of the structure shown. Read-outs that look alike come from different tables or passages of the source.

What was measured:
HIV-1 (HTLV-IIIB) = assay: Anti-retrovirus activity: inhibition of HIV-1-induced cytopathogenicity in MT-4 cells; type: cell-based; conditions: for EC50: Human immunodeficiency virus 1, IIIB, MT4, 120 h; for S.I. (Selectivity Index): CC50/EC50, MT-4 cells
Source text: The viruses used were moloney murine sarcoma virus (MSV), HIV-1 (strain HTLV-IIIB, kindly provided by R. C. Gallo and M. Popovic, National Cancer Institute, Bethesda, Md.), HIV-2 (strain LAV-2(ROD)), kindly provided by L. Montagnier (Pasteur Institute, Paris, France), simian immunodeficiency virus (SIV) (strain SIVMAC251, kindly provided by C. Bruck, RIT-Smith-Kline, Rixensart, Belgium).
(§1) In order to evaluate the inhibitory effects against retrovirus-induced cytopathogenicity in MT-4cells, said cells (5×10^5 cells/ml) were suspended in fresh culture medium and infected with HIV-1, HIV-2 or SIOV at 100 times the cell culture infective dose-50 (CCID50) per ml cell suspension (1 CCID50 being the dose infective for 50% of the cell cultures). Then, 100 μl of the infected cell suspension were transferred to microplate wells, mixed with 100 μl of the appropriate dilutions of the test compounds, and further incubated at 37° C. After 5 days, the number of viable cells was determined in a blood cell-counting chamber by trypan blue staining for both virus-infected and mock-infected cell cultures.

[1] = Cytotoxicity for mock-infected MT-4 cells; conditions: human, mt-4 cells
Procedure: as §1

[2] = Partition coefficient (Pa) between 1-octanol and 10 mM potassium phosphate buffer; type: physicochemical; conditions: 1-octanol / 10 mM potassium phosphate buffer, pH 7.5, 50 μM; for logD at 50 µM: room temperature
Procedure: Partition of the test compounds between 1-octanol (Merck, Darmstadt, Germany) and 10 mM potassium phosphate buffer, pH, 7.5 (Merck), was measured as described in Balzarini et al., Biochem, Biophys. Res. Commun. 158: 413-422 (1989). Briefly, a 50 μM concentration of the test compound in potassium phosphate buffer was thoroughly mixed with an equal volume of 1-octanol for 30 min at room temperature. Then, the mixture was further equilibrated at room temperature and UV absorption was measured for the aqueous and alcoholic liquid phases. The partition coefficient (Pa) was calculated as the ratio of the compound concentration present in the 1-octanol phase to the compound concentration present in the aqueous phase.

MT-4 cells = assay: Cytotoxicity for mock-infected MT-4 cells; conditions: for cytotoxicity to MT-4 cells (in words): at 100 μg/ml
Procedure: as §1

MT-4 cell RNA synthesis = assay: Incorporation of radiolabeled precursors into MT-4 cell RNA; type: cell-based; conditions: Homo sapiens, MT4, MT-4 cells, 20 to 24 hr
Source text: (§2) The radiolabeled nucleosides [methyl-^3 H]dThd (specific radioactivity: 40 Ci/mmol), [5-^3 H]dUrd (specific radioactivity: 27 Ci/mmol), [5-^3 H]dCyc (specific radioactivity: 18.2 Ci/mmol) and the radiolabeled amino acid L-[4,5-^3 H]leucine (specific radioactivity: 52 Ci/mmol were derived from the Radiochemcial Centre (Amersham, England); [5-^3 H]Urd (specific radioactivity: 21 Ci/mmol) and [5-^3 H]Cyd (specific radioactivity: 21 Ci/mmol) and were obtained from Moravek Biochemicals Inc. (Brea, Calif.)
(§3) The incorporation of [methyl-^3 H]dThd, [5-^3 H]dUrd, [5-^3 H]dCyd, [5-^3 H]Urd, [5-^3 H]Cyd and L-[4,5-^3 H]1eu into TCA-insoluble MT-4 cell material was measured in wells of a 96-well microtiter plate (Falcon-3072, Becton-Dickinson, New Jersey). To each well were added 10^5 MT-4 cells, 0.25 μCi of the radiolabeled precursor and a given amount of test compound. The cells were allowed to proliferate for 20 to 24 hr at 37° C. in a humidified, CO2 -controlled atmosphere. At the end of this incubation period, the contents of the wells (200 μl) were brought onto 25-mm glass fiber filters (type A/E, Gelman Instrument Company, Ann Arbor, Mich.), and mounted on a Millipore 3025 sampling manifold apparatus. The filters were washed twice with 2 ml and 5 ml cold NaCl/Pi (phosphte-buffered saline), twice with 2 and 5 ml cold 10% trichloroacetic acid (TCA), twice with 5 and 7.5 ml cold 5% TCA, and twice with 1 ml cold ethanol.

[3] = test system: MT-4 cell DNA, RNA or protein synthesis; assay: Incorporation of radiolabeled DNA, RNA or protein precursors into TCA-insoluble MT-4 cell material (summary in words); type: cell-based; conditions: for inhibition of incorporation of precursors relative to inhibition of MT-4 cell proliferation / preferential inhibition of incorporation of one precursor over the others: Table 2 discussion; for inhibition of incorporation of dThd, dUrd, dCyd, Urd, Cyd or leucine: at 100 μg/ml
Source text: as §2, §3

[4] = test system: MT-4 cell protein synthesis; assay: Incorporation of radiolabeled leucine into MT-4 cell protein; type: cell-based; conditions: Homo sapiens, MT4; MT-4 cells, 20 to 24 hr; read-out: IC50, L-[4,5-3H]leucine incorporation
Source text: as §2, §3

MT-4 cell DNA synthesis = assay: Incorporation of radiolabeled precursors into MT-4 cell DNA; type: cell-based; conditions: Homo sapiens, MT4, MT-4 cells, 20 to 24 hr
Source text: as §2, §3

HIV-2 strain (EHO) = assay: Activity against HIV-2 strain EHO; type: cell-based
HIV-1 = assay: Antiviral activity upon delayed addition to HIV-1-infected MT-4 cells; type: cell-based
Procedure: as §1
Mt-4 cells were suspended in culture medium, infected with HIV-1 and brought into microplate wells as described above. […] After 5 days, the number of viable cells was determined and the EC50 and CC50 values for the test compounds were defined as described in example 1.

[5] = read-out: IC50, [5-3H]Cyd incorporation
[6] = read-out: IC50, [5-3H]Urd incorporation
[7] = read-out: IC50, [5-3H]dCyd incorporation
[8] = read-out: IC50, [5-3H]dUrd incorporation
[9] = read-out: IC50, [methyl-3H]dThd incorporation

SMILES | EC50 (HIV-1 (HTLV-IIIB)) [µg/mL] | S.I. (Selectivity Index) (HIV-1 (HTLV-IIIB); Table 1) | CC50 at 120 h [1] [µg/mL] | presence in the n-octanol phase compared to the aqueous phase [2] | logD at 50 µM [2] | other results
Cc1cn([C@@H]2O[C@H](CO)[C@@]3(OS(=O)(=O)C=C3N)[C@H]2O[Si](C)(C)C(C)(C)C)c(=O)[nH]c1=O [Compound 2] | > 40 | < 2,5 | 106 (≈ 223 µM) | more than 95% | > 1.3 | –
CC(C)(C)[Si](C)(C)OC[C@H]1O[C@@H](n2ccc(=O)[nH]c2=O)[C@H](O[Si](C)(C)C(C)(C)C)[C@]12OS(=O)(=O)C=C2N [Compound 11, {1-[2', 5'-Bis-O-(tert-butyldimethylsilyl)-β-D-ribofuranosyl]uracil}-3'-spiro-5"-{4"-amino-1", 2"-oxathiole-2", 2"-dioxide}] | 0.114 (≈ 0.198 µM) | 73 | 8.3 (≈ 14.4 µM) | more than 95% | > 1.3 | inhibition of MT-4 cell proliferation (in words) (MT-4 cells): inhibitory to MT-4 cell proliferation; cytotoxicity to MT-4 cells (in words) (MT-4 cells): not cytotoxic; IC50 (MT-4 cell RNA synthesis; [5]): 11 µg/mL (≈ 19.1 µM); IC50 (MT-4 cell RNA synthesis; [6]): 11 µg/mL (≈ 19.1 µM); inhibition of incorporation of precursors relative to inhibition of MT-4 cell proliferation [3]: equally inhibitory; preferential inhibition of incorporation of one precursor over the others [3]: neither; inhibition of incorporation of dThd, dUrd, dCyd, Urd, Cyd or leucine [3]: did not markedly inhibit; IC50 [4]: 14 µg/mL (≈ 24.3 µM); IC50 (MT-4 cell DNA synthesis; [7]): 18 µg/mL (≈ 31.3 µM); IC50 (MT-4 cell DNA synthesis; [8]): 12 µg/mL (≈ 20.8 µM); IC50 (MT-4 cell DNA synthesis; [9]): 38 µg/mL (≈ 66 µM)
Cc1cn([C@@H]2O[C@H](CO[Si](C)(C)C(C)(C)C)[C@@]3(OS(=O)(=O)C=C3N)[C@H]2O[Si](C)(C)C(C)(C)C)c(=O)nc1N [Compound 16, {1-[2', 5'-Bis-O-(tert-butyldimethylsilyl)-β-D-ribofuranosyl]-5-methyl-cytosine}-3'-spiro-5"-{4"-amino-1",2"-oxathiole-2",2"-dioxide}] | 0.072 (≈ 0.122 µM) | 246 | 17.7 (≈ 30.1 µM) | – | – | inhibition of MT-4 cell proliferation (in words) (MT-4 cells): inhibitory to MT-4 cell proliferation; cytotoxicity to MT-4 cells (in words) (MT-4 cells): not cytotoxic; IC50 (MT-4 cell RNA synthesis; [5]): 11 µg/mL (≈ 18.7 µM); IC50 (MT-4 cell RNA synthesis; [6]): 8.9 µg/mL (≈ 15.1 µM); inhibition of incorporation of precursors relative to inhibition of MT-4 cell proliferation [3]: equally inhibitory; preferential inhibition of incorporation of one precursor over the others [3]: neither; inhibition of incorporation of dThd, dUrd, dCyd, Urd, Cyd or leucine [3]: did not markedly inhibit; IC50 [4]: 13 µg/mL (≈ 22.1 µM); activity against HIV-2 strain (EHO) (HIV-2 strain (EHO)): inactive; IC50 (MT-4 cell DNA synthesis; [7]): 14 µg/mL (≈ 23.8 µM); IC50 (MT-4 cell DNA synthesis; [8]): 9.9 µg/mL (≈ 16.8 µM); IC50 (MT-4 cell DNA synthesis; [9]): 14 µg/mL (≈ 23.8 µM)
C=CCn1c(=O)ccn([C@@H]2O[C@H](CO[Si](C)(C)C(C)(C)C)[C@@]3(OS(=O)(=O)C=C3N)[C@H]2O[Si](C)(C)C(C)(C)C)c1=O [Compound 13, {1-[2', 5'-Bis-O-(tert-butyldimethylsilyl)-62 -D-ribofuranosyl]-3-N-allyl-uracil}-3'-spiro-5"-{4"-amino-1", 2"-oxathiole-2", 2"-dioxide}] | 0.364 (≈ 0.591 µM) | 15 | 5.31 (≈ 8.62 µM) | – | – | –
C=CCn1c(=O)c(C)cn([C@@H]2O[C@H](CO[Si](C)(C)C(C)(C)C)[C@@]3(OS(=O)(=O)C=C3N)[C@H]2O[Si](C)(C)C(C)(C)C)c1=O [Compound 8, {1-[2', 5'-Bis-O-(tert-butyldimethylsilyl)-β-D-ribofuranosyl]-3-N-allyl-thymine}-3'-spiro-5"{4"-amino-1", 2"-oxathiole-2", 2"-dioxide}] | 0.141 (≈ 0.224 µM) | > 1418 | > 200 | more than 95% | > 1.3 | cytotoxicity to MT-4 cells (in words) (MT-4 cells): not cytotoxic; IC50 (MT-4 cell RNA synthesis; [5]): > 100 µg/mL; IC50 (MT-4 cell RNA synthesis; [6]): > 100 µg/mL; inhibition of incorporation of dThd, dUrd, dCyd, Urd, Cyd or leucine [3]: did not markedly inhibit; IC50 [4]: > 100 µg/mL; IC50 (MT-4 cell DNA synthesis; [7]): > 100 µg/mL; IC50 (MT-4 cell DNA synthesis; [8]): > 100 µg/mL; IC50 (MT-4 cell DNA synthesis; [9]): > 100 µg/mL
Cc1cn([C@@H]2O[C@H](COC(=O)c3ccccc3)[C@@]3(OS(=O)(=O)C=C3N)[C@H]2O[Si](C)(C)C(C)(C)C)c(=O)[nH]c1=O [Compound 4] | > 8 | < 2,5 | 20 (≈ 34.5 µM) | more than 95% | > 1.3 | –
CC(C)(C)[Si](C)(C)OC[C@H]1O[C@@H](n2cnc3c(N)ncnc32)[C@H](O[Si](C)(C)C(C)(C)C)[C@]12OS(=O)(=O)C=C2N [Compound 17] | 0.162 (≈ 0.271 µM) | 45 | 7.3 (≈ 12.2 µM) | – | – | activity against HIV-2 strain (EHO) (HIV-2 strain (EHO)): inactive
Cc1cn([C@@H]2O[C@H](CO[Si](C)(C)C(C)(C)C)[C@@]3(OS(=O)(=O)C=C3N)[C@H]2O)c(=O)[nH]c1=O [Compound 3] | > 20 | < 2 | 45 (≈ 94.6 µM) | more than 95% | > 1.3 | –
CC(C)(C)[Si](C)(C)OC[C@H]1O[C@@H](n2cc(Br)c(=O)[nH]c2=O)[C@H](O[Si](C)(C)C(C)(C)C)[C@]12OS(=O)(=O)C=C2N [Compound 12] | 0.206 (≈ 0.315 µM) | 11 | 2.35 (≈ 3.59 µM) | – | – | activity against HIV-2 strain (EHO) (HIV-2 strain (EHO)): inactive
CCc1cn([C@@H]2O[C@H](CO[Si](C)(C)C(C)(C)C)[C@@]3(OS(=O)(=O)C=C3N)[C@H]2O[Si](C)(C)C(C)(C)C)c(=O)[nH]c1=O [Compound 10, {1-[2', 5'-Bis-O-(tert-butyldimethylsilyl)-β-D-ribofuranosyl]-5-ethyl-uracil}-3'-spiro-5"-{4"-amino-1",2"-oxathiole-2",2"-dioxide}] | 0.038 (≈ 0.0629 µM) | 82 | 3.2 (≈ 5.3 µM) | – | – | decrease of antiviral activity on delayed addition (HIV-1; addition delayed by 17-24 hours, data not shown): 10 fold; antiviral activity on delayed addition (HIV-1; addition delayed by 41 to 48 hours): almost totally lost
Cc1cn([C@@H]2O[C@H](CO)[C@@]3(OS(=O)(=O)C=C3N)[C@H]2O)c(=O)[nH]c1=O [Compound 1] | – | – | > 100 | – | -0.932 | EC50 (HIV-1 (HTLV-IIIB); Table 1, HIV-1 in MT-4 cells, 5 days, read-out: EC50): > 100 µg/mL
CC(=O)Nc1ccn([C@@H]2O[C@H](CO[Si](C)(C)C(C)(C)C)[C@@]3(OS(=O)(=O)C=C3N)[C@H]2O[Si](C)(C)C(C)(C)C)c(=O)n1 [Compound 15, {4-N-Acetyl-1-[2', 5'-bis-O-(tert-butyldimethylsilyl)-β-D-ribofuranosyl]cytosine}-3'-spiro-5"-{4"-amino-1",2"-oxathiole-2",2"-dioxide}] | 0.097 (≈ 0.157 µM) | 77 | 7.5 (≈ 12.2 µM) | more than 95% | > 1.3 | –
